PMC5218480 (PLoS ONE, 2017)

System: MV-4-11 cells
Experiment: Gene expression microarray analysis (Affymetrix PrimeView) and GSEA
Assay type: cell-based, human
Parameters: RFU PODN (11730768_x_at) / Fold change /veh PODN (11730768_x_at) / RFU LINC00158 (11744669_a_at) / Fold change /veh LINC00158 (11744669_a_at) / RFU DUSP10 (11751237_a_at) / Fold change /veh DUSP10 (11751237_a_at) / RFU ID3 (11757404_x_at) / Fold change /veh ID3 (11757404_x_at) / RFU PLEKHG5 (11737974_s_at) / Fold change /veh PLEKHG5 (11737974_s_at) / RFU LRRC4B (11730491_at) / Fold change /veh LRRC4B (11730491_at) / RFU GIMAP4 (11747438_a_at) / Fold change /veh GIMAP4 (11747438_a_at) / RFU KRT8 (11758183_x_at) / Fold change /veh KRT8 (11758183_x_at) / RFU CNN1 (11734310_a_at) / Fold change /veh CNN1 (11734310_a_at) / RFU VPS37D (11726825_at) / Fold change /veh VPS37D (11726825_at) / RFU C10orf10 (11716522_x_at) / Fold change /veh C10orf10 (11716522_x_at) / RFU KIR2DL2 /// KIR2DL4 /// KIR2DL5A /// KIR2DL5B /// KIR2DS1 /// KIR2DS2 /// KIR2DS3 /// KIR2DS4 /// KIR3DL3 /// KIR3DL3 /// KIR3DS1 (11738374_at) / Fold change /veh KIR2DL2 /// KIR2DL4 /// KIR2DL5A /// KIR2DL5B /// KIR2DS1 /// KIR2DS2 /// KIR2DS3 /// KIR2DS4 /// KIR3DL3 /// KIR3DL3 /// KIR3DS1 (11738374_at) / RFU C1QL1 (11718748_at) / Fold change /veh C1QL1 (11718748_at) / RFU TMPRSS4 (11747572_a_at) / Fold change /veh TMPRSS4 (11747572_a_at) / RFU HAMP (11756126_x_at) / Fold change /veh HAMP (11756126_x_at) / RFU RNFT2 (11725882_a_at) / Fold change /veh RNFT2 (11725882_a_at) / RFU NR4A2 (11747474_a_at) / Fold change /veh NR4A2 (11747474_a_at) / RFU ABCC12 (11746883_a_at) / Fold change /veh ABCC12 (11746883_a_at) / RFU TMEM136 (11760407_x_at) / Fold change /veh TMEM136 (11760407_x_at) / RFU CLDN22 /// WWC2 (11732394_at) / Fold change /veh CLDN22 /// WWC2 (11732394_at) / RFU HLA-DPB1 (11760878_x_at) / Fold change /veh HLA-DPB1 (11760878_x_at) / RFU SPINT1 (11716480_a_at) / Fold change /veh SPINT1 (11716480_a_at) / RFU GAP43 (11754022_s_at) / Fold change /veh GAP43 (11754022_s_at) / RFU A4GNT (11735810_at) / Fold change /veh A4GNT (11735810_at) / RFU PRB3 (11715151_x_at) / Fold change /veh PRB3 (11715151_x_at) / RFU TUBB4B (11761932_at) / Fold change /veh TUBB4B (11761932_at) / RFU CAPN14 (11732068_a_at) / Fold change /veh CAPN14 (11732068_a_at) / RFU TMCC2 (11721928_a_at) / Fold change /veh TMCC2 (11721928_a_at) / RFU IRGQ (11745062_a_at) / Fold change /veh IRGQ (11745062_a_at) / RFU FAM174B (11720279_a_at) / Fold change /veh FAM174B (11720279_a_at) / RFU TMPRSS4 (11748680_a_at) / Fold change /veh TMPRSS4 (11748680_a_at) / RFU FAM212B (11763350_a_at) / Fold change /veh FAM212B (11763350_a_at) / RFU PLEKHG5 (11743358_a_at) / Fold change /veh PLEKHG5 (11743358_a_at) / RFU ZSCAN30 (11745921_a_at) / Fold change /veh ZSCAN30 (11745921_a_at) / RFU CMKLR1 (11741424_a_at) / Fold change /veh CMKLR1 (11741424_a_at) / RFU LOC101060620 /// MAPK8IP1 (11723275_at) / Fold change /veh LOC101060620 /// MAPK8IP1 (11723275_at) / RFU SPTSSB (11747773_x_at) / Fold change /veh SPTSSB (11747773_x_at) / RFU PRSS12 (11739890_at) / Fold change /veh PRSS12 (11739890_at) / RFU BIN1 (11741810_x_at) / Fold change /veh BIN1 (11741810_x_at) / RFU WNT11 (11732464_a_at) / Fold change /veh WNT11 (11732464_a_at) / RFU C10orf10 (11716521_a_at) / Fold change /veh C10orf10 (11716521_a_at) / RFU C5orf56 (11738089_at) / Fold change /veh C5orf56 (11738089_at) / RFU CYB561 (11721691_x_at) / Fold change /veh CYB561 (11721691_x_at) / RFU ANKRD19P (11752326_a_at) / Fold change /veh ANKRD19P (11752326_a_at) / RFU OR2T12 /// OR2T33 /// OR2T8 (11738714_s_at) / Fold change /veh OR2T12 /// OR2T33 /// OR2T8 (11738714_s_at) / RFU VCAN (11748164_a_at) / Fold change /veh VCAN (11748164_a_at) / RFU JSRP1 (11732532_at) / Fold change /veh JSRP1 (11732532_at) / RFU KRTAP10-11 (11738290_x_at) / Fold change /veh KRTAP10-11 (11738290_x_at) / RFU MYO3A (11730013_a_at) / Fold change /veh MYO3A (11730013_a_at) / RFU EBF3 (11725865_a_at) / Fold change /veh EBF3 (11725865_a_at) / RFU CAMK2N1 (11719241_x_at) / Fold change /veh CAMK2N1 (11719241_x_at) / RFU C5orf56 (11738088_a_at) / Fold change /veh C5orf56 (11738088_a_at) / RFU OLFML3 (11715873_a_at) / Fold change /veh OLFML3 (11715873_a_at) / RFU LOC100653217 /// NTM (11731650_a_at) / Fold change /veh LOC100653217 /// NTM (11731650_a_at) / RFU MAPK11 (11762145_a_at) / Fold change /veh MAPK11 (11762145_a_at) / RFU FIZ1 (11724087_x_at) / Fold change /veh FIZ1 (11724087_x_at) / RFU OASL (11726364_x_at) / Fold change /veh OASL (11726364_x_at) / RFU SOX15 (11748057_x_at) / Fold change /veh SOX15 (11748057_x_at) / RFU CD79A (11719716_a_at) / Fold change /veh CD79A (11719716_a_at) / RFU HIST1H1D (11736915_at) / Fold change /veh HIST1H1D (11736915_at) / RFU CASKIN2 (11723855_a_at) / Fold change /veh CASKIN2 (11723855_a_at) / RFU LOC730098 (11760151_x_at) / Fold change /veh LOC730098 (11760151_x_at) / RFU OR4N2 (11742367_at) / Fold change /veh OR4N2 (11742367_at) / RFU PRRT2 (11749266_a_at) / Fold change /veh PRRT2 (11749266_a_at) / RFU SNX32 (11753110_a_at) / Fold change /veh SNX32 (11753110_a_at) / RFU CDHR5 (11726645_a_at) / Fold change /veh CDHR5 (11726645_a_at) / RFU RCAN1 (11760418_a_at) / Fold change /veh RCAN1 (11760418_a_at) / RFU FAM167A (11723789_a_at) / Fold change /veh FAM167A (11723789_a_at) / RFU FAM26E (11764081_at) / Fold change /veh FAM26E (11764081_at) / RFU ISYNA1 (11749810_s_at) / Fold change /veh ISYNA1 (11749810_s_at) / RFU ACY1 (11761880_at) / Fold change /veh ACY1 (11761880_at) / RFU 11764098_at / Fold change /veh 11764098_at / RFU SAMD14 (11745864_x_at) / Fold change /veh SAMD14 (11745864_x_at) / RFU NPB (11741838_a_at) / Fold change /veh NPB (11741838_a_at) / RFU TMPRSS6 (11731388_a_at) / Fold change /veh TMPRSS6 (11731388_a_at) / RFU KRTAP10-2 (11738614_at) / Fold change /veh KRTAP10-2 (11738614_at) / RFU ARHGAP8 /// PRR5-ARHGAP8 (11727945_x_at) / Fold change /veh ARHGAP8 /// PRR5-ARHGAP8 (11727945_x_at) / RFU KRTAP5-7 /// NADSYN1 (11734609_at) / Fold change /veh KRTAP5-7 /// NADSYN1 (11734609_at) / RFU RASL12 (11751679_a_at) / Fold change /veh RASL12 (11751679_a_at) / RFU CDKN2B (11736163_a_at) / Fold change /veh CDKN2B (11736163_a_at) / RFU PRF1 (11729649_at) / Fold change /veh PRF1 (11729649_at) / RFU, ZNF638 /// ZNF638-IT1 / Fold change vs veh, ZNF638 /// ZNF638-IT1 / RFU, PANK3 / Fold change vs veh, PANK3 / RFU, SH3YL1 / Fold change vs veh, SH3YL1 / RFU, ZEB2 / Fold change vs veh, ZEB2 / RFU, NRIP1 / Fold change vs veh, NRIP1 / RFU, PTTG1IP / Fold change vs veh, PTTG1IP / RFU, CAPN2 / Fold change vs veh, CAPN2 / RFU, MED14 / Fold change vs veh, MED14 / RFU, SNORA58 / Fold change vs veh, SNORA58 / RFU, C1orf63 / Fold change vs veh, C1orf63 / RFU, LRRFIP1 / Fold change vs veh, LRRFIP1 / RFU, NDUFAF7 / Fold change vs veh, NDUFAF7 / RFU, SLC12A2 / Fold change vs veh, SLC12A2 / RFU, IBTK / Fold change vs veh, IBTK / RFU, ESF1 / Fold change vs veh, ESF1 / Fold change vs veh, TMEM50B / RFU, TAOK1 / Fold change vs veh, TAOK1 / RFU, ACBD3 / Fold change vs veh, ACBD3 / RFU, TMA16 / Fold change vs veh, TMA16 / RFU, RWDD3 / Fold change vs veh, RWDD3 / RFU, BCAT1 / Fold change vs veh, BCAT1 / RFU, EDEM3 / Fold change vs veh, EDEM3 / RFU, TMEM33 / Fold change vs veh, TMEM33 / RFU, WDR75 / Fold change vs veh, WDR75 / RFU, AHCTF1 / Fold change vs veh, AHCTF1 / RFU, TFRC / Fold change vs veh, TFRC / RFU, ZDHHC17 / Fold change vs veh, ZDHHC17 / RFU, NOM1 / Fold change vs veh, NOM1 / RFU, ARL8B / Fold change vs veh, ARL8B / RFU, ZBTB11 / Fold change vs veh, ZBTB11 / RFU, TAMM41 / Fold change vs veh, TAMM41 / RFU, KIAA1704 /// LOC100996395 / Fold change vs veh, KIAA1704 /// LOC100996395 / RFU, ING1 / Fold change vs veh, ING1 / RFU, TRMT61B / Fold change vs veh, TRMT61B / RFU, FUBP3 / Fold change vs veh, FUBP3 / RFU, TP53 / Fold change vs veh, TP53 / RFU, TNKS2 / Fold change vs veh, TNKS2 / RFU, ZFP14 / Fold change vs veh, ZFP14 / RFU, ACTR2 / Fold change vs veh, ACTR2 / RFU, PPP3R1 / Fold change vs veh, PPP3R1 / RFU, PIK3R1 / Fold change vs veh, PIK3R1 / RFU, HNRNPA1 / Fold change vs veh, HNRNPA1 / RFU, RNF170 / Fold change vs veh, RNF170 / RFU, ZNF28 / Fold change vs veh, ZNF28 / RFU, RNGTT / Fold change vs veh, RNGTT / RFU, OGT / Fold change vs veh, OGT / RFU, BRD1 / Fold change vs veh, BRD1 / RFU, MARS / Fold change vs veh, MARS / RFU, ZNF655 / Fold change vs veh, ZNF655 / RFU, FAHD1 / Fold change vs veh, FAHD1 / RFU, BDP1 / Fold change vs veh, BDP1 / RFU, LRRCC1 / Fold change vs veh, LRRCC1 / RFU, ARID1A / Fold change vs veh, ARID1A / RFU, ZNF146 / Fold change vs veh, ZNF146 / RFU, ZNF330 / Fold change vs veh, ZNF330 / RFU, GPN3 / Fold change vs veh, GPN3 / RFU, C9orf123 / Fold change vs veh, C9orf123 / RFU, N4BP2L2 / Fold change vs veh, N4BP2L2 / RFU, ARFIP1 / Fold change vs veh, ARFIP1 / RFU, FAM179B / Fold change vs veh, FAM179B / RFU, BCL10 / Fold change vs veh, BCL10 / RFU, UHRF1BP1L / Fold change vs veh, UHRF1BP1L / RFU, BET1 / Fold change vs veh, BET1 / RFU, CNOT2 / Fold change vs veh, CNOT2 / RFU, ZNF268 / Fold change vs veh, ZNF268 / Fold change vs veh, ZNF507 / RFU, DGCR2 / Fold change vs veh, DGCR2 / RFU, WDSUB1 / Fold change vs veh, WDSUB1 / Fold change vs veh, HSP90B1 /// MIR3652 / RFU, ADSS / Fold change vs veh, ADSS / RFU, GK / Fold change vs veh, GK / RFU, ZNF148 / Fold change vs veh, ZNF148 / RFU, TAF9 / Fold change vs veh, TAF9 / RFU, SLC1A5 / Fold change vs veh, SLC1A5 / RFU, SLMO2 / Fold change vs veh, SLMO2 / RFU, ABCC4 / Fold change vs veh, ABCC4 / RFU, LOC101060439 /// RAP1B / Fold change vs veh, LOC101060439 /// RAP1B / RFU, RFX7 / Fold change vs veh, RFX7 / RFU, GTPBP10 / Fold change vs veh, GTPBP10 / RFU, CNEP1R1 / Fold change vs veh, CNEP1R1 / RFU, BIVM-ERCC5 /// ERCC5 / Fold change vs veh, BIVM-ERCC5 /// ERCC5 / RFU, ILF3 / Fold change vs veh, ILF3 / RFU 11762660_at / Fold change /veh 11762660_at / RFU VCAN (11757783_s_at) / Fold change /veh VCAN (11757783_s_at) / RFU DDX43 (11728927_at) / Fold change /veh DDX43 (11728927_at) / RFU KRT8 (11758188_x_at) / Fold change /veh KRT8 (11758188_x_at) / RFU NKD1 (11759106_at) / Fold change /veh NKD1 (11759106_at) / RFU SRD5A1 (11742802_a_at) / Fold change /veh SRD5A1 (11742802_a_at) / RFU TPSAB1 /// TPSB2 (11721975_s_at) / Fold change /veh TPSAB1 /// TPSB2 (11721975_s_at) / RFU GSTM3 (11746129_a_at) / Fold change /veh GSTM3 (11746129_a_at) / RFU IL23R (11737362_x_at) / Fold change /veh IL23R (11737362_x_at) / RFU TMEM51 (11727254_a_at) / Fold change /veh TMEM51 (11727254_a_at) / RFU PIWIL2 (11732686_x_at) / Fold change /veh PIWIL2 (11732686_x_at) / RFU ORM1 (11744905_x_at) / Fold change /veh ORM1 (11744905_x_at) / RFU CCDC152 (11743942_at) / Fold change /veh CCDC152 (11743942_at) / RFU ECM1 (11717891_a_at) / Fold change /veh ECM1 (11717891_a_at) / RFU IL23R (11748794_a_at) / Fold change /veh IL23R (11748794_a_at) / RFU TNFAIP8L3 (11732012_x_at) / Fold change /veh TNFAIP8L3 (11732012_x_at) / RFU MBOAT4 (11741988_at) / Fold change /veh MBOAT4 (11741988_at) / RFU 11764193_at / Fold change /veh 11764193_at / RFU TMEM53 (11763286_at) / Fold change /veh TMEM53 (11763286_at) / RFU MAGEB2 (11727129_at) / Fold change /veh MAGEB2 (11727129_at) / RFU TMEM200A (11744735_a_at) / Fold change /veh TMEM200A (11744735_a_at) / RFU CCDC152 (11751479_a_at) / Fold change /veh CCDC152 (11751479_a_at) / RFU FAM211A (11726209_a_at) / Fold change /veh FAM211A (11726209_a_at) / RFU RGS16 (11746705_a_at) / Fold change /veh RGS16 (11746705_a_at) / RFU VCAN (11755009_s_at) / Fold change /veh VCAN (11755009_s_at) / RFU RHOB (11743442_s_at) / Fold change /veh RHOB (11743442_s_at) / RFU RGS16 (11720943_a_at) / Fold change /veh RGS16 (11720943_a_at) / RFU RGS16 (11720944_at) / Fold change /veh RGS16 (11720944_at) / RFU, VPS4B / Fold change vs veh, VPS4B / RFU, CREB1 / Fold change vs veh, CREB1 / RFU, DNAJC13 / Fold change vs veh, DNAJC13 / RFU, GNAQ / Fold change vs veh, GNAQ / RFU, CDK5R1 / Fold change vs veh, CDK5R1 / RFU, ZRANB3 / Fold change vs veh, ZRANB3 / RFU, CUL4A / Fold change vs veh, CUL4A / RFU, CCNY / Fold change vs veh, CCNY / RFU, UFL1 / Fold change vs veh, UFL1 / RFU, COG3 / Fold change vs veh, COG3 / RFU, DIAPH2 / Fold change vs veh, DIAPH2 / RFU, SKA2 / Fold change vs veh, SKA2 / RFU, AFF3 / Fold change vs veh, AFF3 / RFU, LMF1 / Fold change vs veh, LMF1 / RFU, IPO11 / Fold change vs veh, IPO11 / RFU, DFFB / Fold change vs veh, DFFB / RFU, FOXP1 / Fold change vs veh, FOXP1 / RFU, CARD8 / Fold change vs veh, CARD8 / RFU, STRN3 / Fold change vs veh, STRN3 / RFU, ADK / Fold change vs veh, ADK / RFU, RASSF2 / Fold change vs veh, RASSF2 / RFU, WIPF1 / Fold change vs veh, WIPF1 / RFU, LARP1B / Fold change vs veh, LARP1B / RFU, RASA1 / Fold change vs veh, RASA1 / RFU, RB1 / Fold change vs veh, RB1 / RFU, PPFIA1 / Fold change vs veh, PPFIA1 / RFU, MAT2A / Fold change vs veh, MAT2A / RFU, CCT5 / Fold change vs veh, CCT5 / RFU, WDR92 / Fold change vs veh, WDR92 / RFU, CUX1 / Fold change vs veh, CUX1 / RFU, TTC7A / Fold change vs veh, TTC7A / RFU, TMEM135 / Fold change vs veh, TMEM135 / RFU, DEPTOR / Fold change vs veh, DEPTOR / RFU, CPM / Fold change vs veh, CPM / RFU, DNAJB6 / Fold change vs veh, DNAJB6 / RFU, CACNA2D3 / Fold change vs veh, CACNA2D3 / RFU, DTX4 / Fold change vs veh, DTX4 / RFU, TFCP2 / Fold change vs veh, TFCP2 / RFU, GMCL1 /// GMCL1P1 / Fold change vs veh, GMCL1 /// GMCL1P1 / RFU, AEBP2 / Fold change vs veh, AEBP2 / RFU, SNHG1 /// SNORD22 /// SNORD25 /// SNORD26 /// SNORD27 /// SNORD28 /// SNORD29 /// SNORD31 / Fold change vs veh, SNHG1 /// SNORD22 /// SNORD25 /// SNORD26 /// SNORD27 /// SNORD28 /// SNORD29 /// SNORD31 / Fold change (Aza/veh), C12orf56 (ProbeSet 11735607_a_at) / Fold change (ACY-1035/veh), C12orf56 (ProbeSet 11735607_a_at) / Fold change (Aza/veh), FGFR1OP (ProbeSet 11751329_s_at) / Fold change (ACY-1035/veh), FGFR1OP (ProbeSet 11751329_s_at) / Fold change (Aza/veh), VPS36 (ProbeSet 11739960_a_at) / Fold change (ACY-1035/veh), VPS36 (ProbeSet 11739960_a_at) / RFU SYPL1 (11715823_x_at) / Fold change /veh SYPL1 (11715823_x_at) / RFU IGFBP7 (11715501_s_at) / Fold change /veh IGFBP7 (11715501_s_at) / RFU REEP3 (11722064_at) / Fold change /veh REEP3 (11722064_at) / RFU IGLL1 (11728026_x_at) / Fold change /veh IGLL1 (11728026_x_at): dose or concentration left out as unconfirmed
Settings: ProbeSet 11731093_s_at; LIST B

For `Nc1ccc(-c2cccs2)cc1NC(=O)c1ccc2c(c1)cc(C1CC1)n2CCN1CCOCC1` [ACY-1035], the “RFU, BRD1” value was 190.44 RFU.
